Assay results reported in PubChem BioAssay (NCI).
≈ marks a conversion by molar mass, not a printed value.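 Where inhibition never reached the appropriate level, the endpoint shown equals the highest concentration tested. Otherwise, values were interpolated linearly from a five-concentration, 48-hour dose response in 96-well plates. GI50 = concentration required for 50% inhibition of growth. The concentration for full growth arrest is given as TGI.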

Columns and labels:
Experiment in all cases: NCI tumour cell line growth inhibition, 48 h
DMS 114 small cell lung = test system: DMS 114 small cell lung
HOP-18 NSCLC = test system: HOP-18 NSCLC
LXFL 529 NSCLC = test system: LXFL 529 NSCLC
XF 498 CNS = test system: XF 498 CNS
RXF-631 renal = test system: RXF-631 renal
P388 leukemia = test system: P388 leukemia
P388/ADR leukemia = test system: P388/ADR leukemia
SN12K1 renal = test system: SN12K1 renal

SMILES	TGI (DMS 114 small cell lung)	TGI (HOP-18 NSCLC) [µM]	TGI (LXFL 529 NSCLC) [µM]	TGI (XF 498 CNS) [µM]	TGI (RXF-631 renal) [µM]	TGI (P388 leukemia)	TGI (P388/ADR leukemia)	TGI (SN12K1 renal)	GI50 (DMS 114 small cell lung) [µg/mL]	GI50 (P388/ADR leukemia) [µg/mL]	GI50 (SN12K1 renal) [µg/mL]
COC(OC)c1cccc2c1C(=O)CCC1(CC2)OCCCCO1	> 100 µM	> 100	> 100	–	–	–	–	–	–	–	–
Cc1cc2c3ccccc3n3c2c2c1OC1(C)CCC(C2C1)C3(C)C (stereo not drawn)	> 25 µM	–	> 25	> 25	–	–	–	–	–	–	–
Cc1[nH]c2c(C)c3c([nH]c4ccc(Cl)cc43)c(C)c2c(=O)c1C	83.3 µM	> 100	–	> 100	–	–	–	–	–	–	–
CNC(=O)OC1/C(C)=C\C(C)C(O)C(OC)CC(C)CC2=C(OC)C(=O)C=C(C2=O)N(C)C(=O)/C(C)=C/C=C\C1OC (stereo not drawn)	12.6 µM	22.7	19.6	10	41.2	–	–	–	–	–	–
CCCOC(=O)CCC(NC(=O)c1ccc(Nc2nc3ccccc3nc2-c2cccs2)cc1)C(=O)OCCC (stereo not drawn)	–	> 100	> 100	> 100	> 100	–	–	–	–	–	–
Cc1c(CCCl)c(Cl)n2c(nc3ccccc32)c1C#N	2.84 µM	3.95	1.63	–	2.18	–	–	–	–	–	–
CN1C/C(=C\c2ccccc2)C2=NN(C(N)=S)[C@H](c3ccccc3)[C@@H]2C1	–	–	> 100	> 100	–	–	–	–	–	–	–
CC(=O)OC1CCC2(C)C(CCC3C2CCC2(C)C(c4ccc(=O)oc4)C(OC(C)=O)CC32O)C1 (stereo not drawn)	–	0.068	–	0.0771	–	125 µM	125 µM	0.0296 µM	–	–	–
Cc1c2ccncc2c(C)c2c1[nH]c1ccc(O)cc12	0.227 µg/mL	–	–	–	–	0.232 µg/mL	1.75 µg/mL	0.182 µg/mL	0.0226 (≈ 0.0863 µM)	0.014 (≈ 0.0532 µM)	0.0168 (≈ 0.0639 µM)
COC1=CC(=O)[C@@]2(C)C(C)[C@H](c3ccccc3)[C@H]2C1=O (stereo partly drawn)	–	–	> 100	> 100	> 100	–	–	–	–	–	–
CCN(CC)C(=O)Cc1[nH][nH]c(=O)c1C(=O)N(CC)CC	> 100 µM	> 100	> 100	> 100	–	–	–	–	–	–	–
CC/C(CC(=O)CCC(=O)Nc1ccc(C)c(C)c1)=N\NC(=O)c1cc2ccccc2cc1O	> 100 µM	88.1	> 100	–	> 100	–	–	–	–	–	–
O=C1C=C2SC3C[C@@]24CC1(O)[N+]1=c2c4c(c(O)c4c2=C(C=N4)CC1)N3	0.504 µM	3.9	–	3.28	–	4.78 µM	–	2.73 µM	–	–	–
CCOC(=O)CN(CC)C(=O)NC12CC3CC(CC(C3)C1)C2	363 µM	609	–	293	–	508 µM	640 µM	569 µM	–	–	–
